Data published in PubChem BioAssay AID330 (DTP/NCI, 2004).
Toxic doses and inconclusive results are not listed. Rule for the calls: active = survival T/C of 150% or more; inactive = T/C below 125% in these data.

Test system: P388 leukemia ip, CD2F1 mice, survival T/C
Assay: NCI In Vivo Anticancer Drug Screen. Data for tumor model P388 Leukemia (intraperitoneal) in CD2F1 (CDF1) mice
Settings: endpoint: median survival time, higher = longer survival
Procedure, shortened: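 Mice carrying the transplanted tumor received test compound or vehicle. Survival was recorded in each group, and the value is the treated-group measurement divided by that of the vehicle-treated control group.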

[1] = dose: 50.0 mg/kg/injection, schedule: Q04DX002 (ip), vehicle: saline with Tween-80
[2] = dose: 100.0 mg/kg/injection, schedule: Q04DX002 (ip), vehicle: saline with Tween-80
[3] = dose: 50.0 mg/kg/injection, schedule: Q01DX009 (ip), vehicle: saline with Tween-80
[4] = dose: 100.0 mg/kg/injection, schedule: Q01DX009 (ip), vehicle: saline with Tween-80
[5] = dose: 200.0 mg/kg/injection, schedule: Q01DX009 (ip), vehicle: saline with Tween-80
[6] = dose: 60.0 mg/kg/injection, schedule: Q01DX005 (ip), vehicle: saline with Tween-80
[7] = dose: 120.0 mg/kg/injection, schedule: Q01DX005 (ip), vehicle: saline with Tween-80
[8] = dose: 240.0 mg/kg/injection, schedule: Q01DX005 (ip), vehicle: saline with Tween-80
[9] = dose: 200.0 mg/kg/injection, schedule: Q04DX002 (ip), vehicle: saline with Tween-80
[10] = dose: 60.0 mg/kg/injection, schedule: Q01DX005 (ip), vehicle: saline
[11] = dose: 120.0 mg/kg/injection, schedule: Q01DX005 (ip), vehicle: saline
[12] = dose: 12.5 mg/kg/injection, schedule: Q01DX009 (ip), vehicle: saline
[13] = dose: 25.0 mg/kg/injection, schedule: Q01DX009 (ip), vehicle: saline
[14] = dose: 400.0 mg/kg/injection, schedule: Q01DX009 (ip), vehicle: saline with Tween-80
[15] = dose: 25.0 mg/kg/injection, schedule: Q01DX009 (ip), vehicle: saline with Tween-80

Measured: T/C

CN(c1ccccc1)C(C#N)c1n[nH]c(=O)[nH]1 (centres undefined)
inactive: dose: 25.0 mg/kg/injection, schedule: Q04DX002 (ip), vehicle: saline with Tween-80 100 % of control | [1] 100 % of control | [2] 93 % of control

C=C(CN(C)C)C(=O)c1ccc(OC2OC(COC(C)=O)C(OC(C)=O)C(OC(C)=O)C2OC(C)=O)cc1 (centres undefined)
inactive: dose: 6.25 mg/kg/injection, schedule: Q01DX005 (ip), vehicle: saline with Tween-80 106 % of control | dose: 12.5 mg/kg/injection, schedule: Q01DX005 (ip), vehicle: saline with Tween-80 109 % of control

Cc1[nH]c(N)nc(=S)c1CCCNc1ccc(C(=O)NC(CCC(=O)O)C(=O)O)cc1 (centres undefined)
inactive: dose: 6.25 mg/kg/injection, schedule: Q01DX005 (ip), vehicle: Klucel (hydroxypropylcellulose) (HPC) 101 % of control | dose: 12.5 mg/kg/injection, schedule: Q01DX005 (ip), vehicle: Klucel (hydroxypropylcellulose) (HPC) 99 % of control | dose: 25.0 mg/kg/injection, schedule: Q01DX005 (ip), vehicle: Klucel (hydroxypropylcellulose) (HPC) 98 % of control

CCCC1(C)COC(c2ccc(OC)cc2)OC1 (centres undefined)
inactive: [3] 103 % of control | dose: 100.0 mg/kg/injection, schedule: Q01DX001 (ip), vehicle: saline with Tween-80 109 % of control | [4] 112 % of control | dose: 200.0 mg/kg/injection, schedule: Q01DX001 (ip), vehicle: saline with Tween-80 102 % of control | [5] 103 % of control | dose: 400.0 mg/kg/injection, schedule: Q01DX001 (ip), vehicle: saline with Tween-80 104 % of control

COC(=O)C(=O)C1(c2nc3n(c2O)/C(=N/C(=O)Nc2ccc(Cl)cc2)N=N3)CCCCCC1=O (centres undefined)
inactive: [6] 100 % of control | [7] 99 % of control | [8] 94 % of control

O=C(N/N=C/c1ccco1)c1cccnc1
inactive: [6] 92 % of control | [7] 92 % of control | [8] 101 % of control

CCOn1nnc2c([N+](=O)[O-])cccc21
inactive: dose: 50.0 mg/kg/injection, schedule: Q01DX005 (ip), vehicle: saline with Tween-80 96 % of control | dose: 100.0 mg/kg/injection, schedule: Q01DX005 (ip), vehicle: saline with Tween-80 92 % of control

COc1ccc(/C=N\N=C(/[O-])c2ccccc2O)cc1.COc1ccc(/C=N\N=C(/[O-])c2ccccc2O)cc1.[Co+2]
inactive: [1] 93 % of control | [2] 98 % of control | [9] 96 % of control

CCc1ccc(NCc2ccc(CNc3ccc(CC)cc3)cc2)cc1
inactive: [3] 86 % of control | [4] 96 % of control | [5] 94 % of control

FC(F)(F)c1ccc2c(c1)N(CCCCl)c1ccccc1S2
inactive: dose: 50.0 mg/kg/injection, schedule: Q04DX003 (ip), vehicle: saline 94 % of control | dose: 100.0 mg/kg/injection, schedule: Q04DX003 (ip), vehicle: saline 99 % of control | dose: 200.0 mg/kg/injection, schedule: Q04DX003 (ip), vehicle: saline 104 % of control | dose: 400.0 mg/kg/injection, schedule: Q04DX003 (ip), vehicle: saline 98 % of control

Cc1nn(-c2ccccc2)c2oc3ccc(Cl)cc3c(=O)c12
inactive: [10] 96 % of control | [11] 92 % of control

CCN1/C(=C/C=C/C=C/c2oc3ccccc3[n+]2CC)Oc2ccccc21
inactive: dose: 0.78 mg/kg/injection, schedule: Q01DX009 (ip), vehicle: saline 104 % of control | dose: 1.56 mg/kg/injection, schedule: Q01DX009 (ip), vehicle: saline 104 % of control | dose: 3.12 mg/kg/injection, schedule: Q01DX009 (ip), vehicle: saline 110 % of control

NCCNCC[OH2+].NCCNCC[OH2+].O=[N+]([O-])[O-].[Ni+2]
inactive: [12] 93 % of control | [13] 102 % of control

Cc1ccc(S(=O)(=O)Cc2ccccc2)cc1
inactive: dose: 50.0 mg/kg/injection, schedule: Q04DX003 (ip), vehicle: other 90 % of control | dose: 100.0 mg/kg/injection, schedule: Q04DX003 (ip), vehicle: other 95 % of control | dose: 200.0 mg/kg/injection, schedule: Q04DX003 (ip), vehicle: other 90 % of control

CC(=O)Oc1ccc(/C=N\N(C)C)cc1
inactive: dose: 50.0 mg/kg/injection, schedule: Q01DX009 (ip), vehicle: saline 102 % of control | dose: 100.0 mg/kg/injection, schedule: Q01DX009 (ip), vehicle: saline 95 % of control

CCOC(=O)c1ccc(NCCC(C)=O)cc1
inactive: [3] 91 % of control | [4] 86 % of control | [5] 91 % of control | [14] 95 % of control

Cc1ccc(NS(=O)(=O)c2ccccc2)nc1
inactive: [15] 110 % of control | [3] 100 % of control | [4] 100 % of control | [5] 95 % of control | [14] 105 % of control

Cc1ccc(S(=O)(=O)NC(=O)Nc2nccs2)cc1
inactive: dose: 12.5 mg/kg/injection, schedule: Q01DX009 (ip), vehicle: distilled water + Tween-80 99 % of control | dose: 25.0 mg/kg/injection, schedule: Q01DX009 (ip), vehicle: distilled water + Tween-80 92 % of control | dose: 50.0 mg/kg/injection, schedule: Q01DX009 (ip), vehicle: distilled water + Tween-80 97 % of control | dose: 100.0 mg/kg/injection, schedule: Q01DX009 (ip), vehicle: distilled water + Tween-80 106 % of control | dose: 200.0 mg/kg/injection, schedule: Q01DX009 (ip), vehicle: distilled water + Tween-80 99 % of control

O=[N+]([O-])c1cc(Cl)c(Cl)cc1[N+](=O)[O-]
inactive: [3] 98 % of control | [4] 111 % of control

O=C1c2ccccc2C(=O)N1CBr
inactive: dose: 12.5 mg/kg/injection, schedule: Q01DX009 (ip), vehicle: saline with Tween-80 109 % of control | [15] 104 % of control | [3] 100 % of control

CSC(=S)n1nc(-c2ccccc2)c(N=Nc2cccc(Cl)c2)c1-c1ccccc1
inactive: [2] 107 % of control | [9] 104 % of control | dose: 400.0 mg/kg/injection, schedule: Q04DX002 (ip), vehicle: saline with Tween-80 119 % of control

COC(=O)C(=CNC(N)=O)C(=O)OC
inactive: [6] 96 % of control | [7] 100 % of control | [8] 94 % of control

CC1(C)CC(O)(CC2CCC34C(=O)OC(C)(CCC3Br)C24)CCC1Br (centres undefined)
inactive: dose: 5.0 mg/kg/injection, schedule: Q01DX009 (ip), vehicle: Klucel (hydroxypropylcellulose) (HPC) 93 % of control | dose: 10.0 mg/kg/injection, schedule: Q01DX009 (ip), vehicle: Klucel (hydroxypropylcellulose) (HPC) 109 % of control | dose: 20.0 mg/kg/injection, schedule: Q01DX009 (ip), vehicle: Klucel (hydroxypropylcellulose) (HPC) 100 % of control

O=C(c1ccc(F)cc1)c1no[n+]([O-])c1C(=O)c1ccc(F)cc1
inactive: dose: 37.5 mg/kg/injection, schedule: Q01DX009 (ip), vehicle: saline with Tween-80 122 % of control | dose: 75.0 mg/kg/injection, schedule: Q01DX009 (ip), vehicle: saline with Tween-80 118 % of control

CN(C)C(=S)OCC1OC(OC2(CO)OC(COC(=S)N(C)C)C(O)C2O)C(O)C(O)C1O (centres undefined)
inactive: [10] 100 % of control | [11] 103 % of control | dose: 240.0 mg/kg/injection, schedule: Q01DX005 (ip), vehicle: saline 103 % of control

C=CC(C)(C)[N+](C)(C)C
inactive: [12] 99 % of control | [13] 102 % of control
